Where “and” joins values, the source holds several entries; their conditions need not be identical. Equal values may be shown once. Where a name gives a salt, the structure may show the parent alone.

Broadly, the melting point is the temperature of the solid-liquid transition.

Turning to `COc1cccc(Nc2nc(NN)nc3c2ncn3C(C)C)c1.Cl`, the melting point came out at 250 °C.

As to `CCn1cnc2c(Nc3cccc(Cl)c3)nc(NCC(C)(C)N)nc21.Cl`, the melting point came out at 196 °C.

For `CCn1cnc2c(Nc3cccc(C#N)c3)nc(NCCN)nc21.Cl`, the melting point was determined as 200 °C.

Take `CC(C)n1cnc2c(Nc3ccc(F)cc3)nc(NCCN)nc21.Cl`: the melting point was over 250 °C.

The compound `CCn1cnc2c(Nc3ccc(F)cc3)nc(NCCN)nc21.Cl` returned a melting point of over 250 °C.

Regarding `CC(C)n1cnc2c(Nc3cccc(Cl)c3)nc(NCCN)nc21` (as salt: ammonium) [Example 4, 2-(2-Amino-ethylamino)-6-(3-chloro-phenyl-amino)-9-isopropyl-9H-purine], the melting point was in the range of 55 to 56 °C.

`CCn1cnc2c(Nc3cccc(Cl)c3)nc(N(CCO)CCO)nc21` [Example 2, 6-(3-chloro-phenylamino)-2-(di-[2-hydroxy-ethyl]-amino)-9-ethyl-9H-purine] returned a melting point of 148 to 149 °C.

Regarding `CCn1cnc2c(Nc3cccc(Cl)c3)nc(NCc3ccccc3)nc21` [Example 10, 2-benzylamino-6-(3-chloro-phenyl-amino)-9-ethyl-9H-purine], the melting point is 88 to 90 °C.

The compound `CCn1cnc2c(Nc3cccc(Cl)c3)nc(NCCc3ccccc3)nc21` [Example 11, 2-(2-phenyl-ethyl-amino)-6-(3-chloro-phenyl-amino)-9-ethyl-9H-purine] showed a melting point of 151 to 152 °C.

In turn, `CCn1cnc2c(Nc3cccc(Cl)c3)nc(NCCCOC)nc21` [Example 12, 2-(3-methoxy-propyl-amino)-6-(3-chloro-phenyl-amino)-9-ethyl-9H-purine] yielded a melting point of 93 to 94 °C.

On to `CCn1cnc2c(Nc3cccc(Cl)c3)nc(NCC3CCCO3)nc21` (centres unmarked) [Example 15, 2-(tetrahydrofurfuryl-amino)-6-(3-chloro-phenyl-amino)-9-ethyl-9H-purine], for which the melting point is 84 to 86 °C.

`CCn1cnc2c(Nc3cccc(Cl)c3)nc(NCCc3ccccn3)nc21` [Example 16, 2-[2-(2-pyridyl)-ethyl-amino]-6-(3-chloro-phenyl-amino)-9-ethyl-9H-purine] displayed a melting point of 152 to 153 °C.

With `CCn1cnc2c(Nc3cccc(Cl)c3)nc(N3CCC(CCN)CC3)nc21` [Example 18, 2-[4-(2-amino-ethyl)-piperidin-1-yl]-6-(3-chloro-phenyl-amino)-9-ethyl-9H-purine], the melting point was in the range of 182 to 184 °C.

As for `CCn1cnc2c(Nc3cccc(Cl)c3)nc(NCCc3c[nH]c4ccccc34)nc21` [Example 20, 2-[2-(3-indolyl)-ethyl-amino]-6-(3-chloro-phenyl-amino)-9-ethyl-9H-purine], the melting point is 106 to 108 °C.

`CCn1cnc2c(Nc3cccc(Cl)c3)nc(N(C)C3(O)CCCCC3)nc21` [Example 22, 6-(3-chloro-phenyl-amino)-2-([1-hydroxy-cyclohex-1-yl]-methylamino)-9-ethyl-9H-purine]: the melting point fell in the range of 143 to 145 °C.

In turn, `CCn1cnc2c(Nc3cccc(Cl)c3)nc(N3CCNCC3)nc21` [Example 23, 6-(3-chloro-phenylamino)-9-ethyl-2-piperazino-9H-purine] gave a melting point of 181.5 to 182.5 °C.

`CCn1cnc2c(Nc3cccc(C(F)(F)F)c3)nc(NCCCO)nc21` [Example 24, 9-Ethyl-2-(3-hydroxy-propyl-amino)-6-(3-trifluoromethyl-phenyl-amino)-9H-purine]: the melting point was 136 °C and 136 to 137 °C.

As to `CCn1cnc2c(Nc3cccc(C(=O)NCCCO)c3C)nc(NCCCO)nc21` [Example 25, 9-ethyl-2-(3-hydroxy-propyl-amino)-6-[3-[(3-hydroxy-propyl)-aminocarbonyl]-2-methyl-phenyl-amino]-9H-purine], the melting point is 138 to 142 °C.

In turn, `COc1cccc(Nc2nc(NCCCO)nc3c2ncn3C(C)C)c1` [Example 27, 2-(3-hydroxy-propyl-amino)-6-(3-methoxy-phenyl-amino)-9-isopropyl-9H-purine] displayed a melting point of 128 to 129 °C.

With `COc1cccc(Nc2nc(NCCCO)nc3c2ncn3CCO)c1` [Example 28, 9-(2-hydroxy-ethyl)-2-(3-hydroxy-propyl-amino)-6-(3-methoxy-phenyl-amino)-9H-purine], the melting point lay within 132 to 133 °C.

`COc1cc(Nc2nc(NCCCO)nc3c2ncn3C)cc(OC)c1OC` [Example 30, 2-(3-hydroxy-propyl-amino)-6-(3,4,5-trimethoxy-phenyl-amino)-9-methyl-9H-purine]: the melting point lay within 166 to 167 °C.

In turn, `CCn1cnc2c(Nc3cccc(Cl)c3)nc(N3CCC[C@H]3CO)nc21` [Example 40, 6-(3-chloro-phenyl-amino)-9-ethyl-2-[(S)-2-hydroxymethyl-pyrrolidin-1-yl]-9H-purine] yielded a melting point of 169 °C.

As for `CCn1cnc2c(Nc3cccc(Cl)c3)nc(Nc3cccc(N)c3)nc21` [Example 42, 2-[3-amino-phenylamino]-6-(3-chloro-phenyl-amino)-9-ethyl-9H-purine], the melting point is 205 °C.

On to `CCn1cnc2c(Nc3cccc(Cl)c3)nc(N3CCC[C@@H]3C(N)=O)nc21` [Example 45, 2-[(R)-(−)-2-carbamoyl-pyrrolidin-1-yl]-6-(3-chloro-phenyl-amino)-9-ethyl-9H-purine], for which the melting point was over 230 °C.

Turning to `CCn1cnc2c(Nc3cccc(Cl)c3)nc(N3CCC[C@@H]3CN)nc21` [Example 46, 2-[(R)-2-Aminomethyl-pyrrolidin-1-yl]-6-(3-chloro-phenyl-amino)-9-ethyl-9H-purine], the melting point was in the range of 126 to 129 °C.

Consider `CCn1cnc2c(Nc3cccc(Cl)c3)nc(NCC(C)N)nc21` (centres unmarked) [Example 47, 2-(2-amino-propyl-amino)-6-(3-chloro-phenyl-amino)-9-ethyl-9H-purine], for which the melting point lay within 119 to 120 °C.

Take `CCn1cnc2c(Nc3cccc(Cl)c3)nc(N3CCCC(NC=O)C3)nc21` (centres unmarked) [Example 48, 6-(3-chloro-phenyl-amino)-9-ethyl-2-(3-formylamino-piperidin-1-yl)-9H-purine]: the melting point stood at 184.3 °C.

`CCn1cnc2c(Nc3cccc(Cl)c3)nc(N[C@@H](C)C(N)=O)nc21` [Example 49, 2-[(S)-1-carbamoyl-ethylamino]-6-(3-chloro-phenyl-amino)-9-ethyl-9H-purine] registered a melting point of 117 to 121 °C.

The compound `CCn1cnc2c(Nc3cccc(Cl)c3)nc(N(C)C(N)=O)nc21` [Example 53, 2-[carbamoyl-methyl-amino]-6-(3-chloro-phenyl-amino)-9-ethyl-9H-purine] gave a melting point of over 220 °C.

Regarding `CCn1cnc2c(Nc3cccc(Cl)c3)nc(N3CCC4(CC3)OCCO4)nc21` [Example 54, 6-(3-chloro-phenyl-amino)-2-(1,4-dioxa-8-azaspiro[4.5]dec-8-yl)-9-ethyl-9H-purine], the melting point was in the range of 159 to 161 °C.

As for `CCn1cnc2c(Nc3cccc(Cl)c3)nc(N(CCO)C3CCCCC3)nc21` [Example 62, 6-(3-chloro-phenyl-amino)-2-[N-cyclohexyl-N-(2-hydroxy-ethyl)-amino]-9-ethyl-9H-purine], the melting point lay within 125 to 128 °C.

`CCn1cnc2c(Nc3cccc(Cl)c3)nc(N3CCC[C@H]3C(N)=O)nc21` [Example 64, 2-[(S)-2-carbamoyl-pyrrolidin-1-yl]-6-(3-chloro-phenyl-amino)-9-ethyl-9H-purine]: the melting point was over 240 °C.

On to `CCn1cnc2c(Nc3cccc(Cl)c3)nc(N[C@H]3CC[C@H](O)CC3)nc21` [Example 65, 6-(3-chloro-phenyl-amino)-9-ethyl-2-(trans-4-hydroxy-cyclohexyl-amino)-9H-purine], for which the melting point came to 116.5 °C.

As for `CCn1cnc2c(Nc3cccc(Cl)c3)nc(N3CCCC(N)C3)nc21` (centres unmarked) [Example 66, 2-(3-amino-piperidin-1-yl)-6-(3-chloro-phenyl-amino)-9-ethyl-9H-purine], the melting point amounted to 165 °C.

With `CCn1cnc2c(Nc3cccc(Cl)c3)nc(N3CCC(O)CC3)nc21` [Example 72, 6-(3-chloro-phenyl-amino)-9-ethyl-2-(4-hydroxy-piperidino)-9H-purine], the melting point stood at 198.7 °C.

For `CCn1cnc2c(Nc3cccc(Cl)c3)nc(N3C(C)CNCC3C)nc21` (centres unmarked) [Example 74, 6-(3-chloro-phenylamino)-2-[(2,6-dimethyl)-piperazino]-9-ethyl-9H-purine], the melting point is 183 °C.

Compound `CCn1cnc2c(Nc3cccc(Cl)c3)nc(N3CCCCC3)nc21` [Example 82, 6-(3-chloro-phenyl-amino)-9-ethyl-2-piperidino-9H-purine] yielded a melting point of 126 °C.

`CC[C@@H](CO)Nc1nc(Nc2cccc(Cl)c2)c2ncn(CC)c2n1` [Example 83, 6-(3-chloro-phenyl-amino)-9-ethyl-2-[(S)-1-hydroxy-but-2-yl-amino]-9H-purine] came in with a melting point of 203 °C.

In turn, `CC[C@H](CO)Nc1nc(Nc2cccc(Cl)c2)c2ncn(CC)c2n1` [Example 84, 6-(3-chloro-phenyl-amino)-9-ethyl-2-[(R)-1-hydroxy-but-2-yl-amino)-9H-purine] gave a melting point of 200 °C.

In the case of `CCn1cnc2c(Nc3cccc(Cl)c3)nc(NC3CCCCC3)nc21` [Example 85, 6-(3-chloro-phenyl-amino)-2-cyclohexylamino-9-ethyl-9H-purine], the melting point amounted to 143 °C.

`CCn1cnc2c(Nc3cccc(Cl)c3)nc(NC[C@@H](C)O)nc21` [Example 88, 6-(3-chloro-phenyl-amino)-9-ethyl-2-[(R)-2-hydroxy-propylamino]-9H-purine] came in with a melting point of 161 °C.

Turning to `CCn1cnc2c(Nc3cccc(Cl)c3)nc(NC[C@H](C)O)nc21` [Example 89, 6-(3-chloro-phenyl-amino)-9-ethyl-2-[(S)-2-hydroxy-propylamino]-9H-purine], the melting point was found to be 161 °C.

`CC(C)n1cnc2c(Nc3cccc(F)c3)nc(NCCN)nc21` [Example 91, 2-(2-Amino-ethyl-amino)-6-(3-fluoro-phenyl-amino)-9-isopropyl-9H-purine] registered a melting point of over 250 °C.

In turn, `CCn1cnc2c(Nc3cccc(F)c3)nc(NCCO)nc21` [Example 92, 2-(2-hydroxy-ethyl-amino)-6-(3-fluoro-phenyl-amino)-9-ethyl-9H-purine] displayed a melting point of 184 °C.

Values taken from patent US7091346B1, “Purine derivatives and processes for their preparation” (Novartis AG, priority 1995, dated 2006).
